# Measurements from PMC3169616, “Unique Residues Involved in Activation of the Multitasking Protease/Chaperone HtrA from Chlamydia trachomatis” (PLoS ONE, 2011).
# Key:
# CtHtrA [1] = molecular target: T1, CtHtrA (Chlamydia trachomatis serovar D, UniProt P18584); test: Activation of CtHtrA cleavage of Bcas1 substrate by added activator; format: biochemical; conditions: substrate Bcas1 (MCA-ENLHLPLPIIF-DNP), fluorimetric, 37°C
# T1 construct: His-tag; made in house; host or cells: E. coli BL21 (DE3), plasmid pETHtrA
# T1 sequence (P18584 17-497): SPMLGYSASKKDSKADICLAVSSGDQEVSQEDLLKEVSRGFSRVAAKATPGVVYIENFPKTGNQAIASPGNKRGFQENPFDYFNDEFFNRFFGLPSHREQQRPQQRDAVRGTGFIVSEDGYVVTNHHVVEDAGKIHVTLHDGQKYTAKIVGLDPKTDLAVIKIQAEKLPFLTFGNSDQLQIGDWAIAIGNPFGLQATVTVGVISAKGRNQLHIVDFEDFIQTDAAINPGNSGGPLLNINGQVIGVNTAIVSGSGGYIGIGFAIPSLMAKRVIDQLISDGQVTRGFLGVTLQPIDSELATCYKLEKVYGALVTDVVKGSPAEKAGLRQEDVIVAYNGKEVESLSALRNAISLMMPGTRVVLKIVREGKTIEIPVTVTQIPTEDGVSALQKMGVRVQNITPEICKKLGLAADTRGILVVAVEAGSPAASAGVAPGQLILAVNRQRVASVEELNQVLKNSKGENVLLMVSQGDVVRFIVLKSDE
# Method: (§1) To determine if the addition of a second peptide to the protease assays could activate or increase CtHtrA proteolysis, two activator peptides were tested in the CtHtrA cleavage of the model ß-casein peptide substrate Bcas1. The first was based on the ß-casein C-terminal sequence (Act1: NH2-VLGPVRGPFPIIV-OH) and the second on insulin b chain C-terminal sequence (Act2: NH2-CGELGFFYTP-OH).
# Finally, in order to determine if the 24-mer (highest amount with MOMP protein, or Act1), or 12-mer, or both, corresponds to enhanced protease activity, the incubations of CtHtrA and these potential in vivo activators were used for protease assays with the Bcas1 substrate (Fig. 6). […] The presence of the majority of CtHtrA as higher order oligomers correlated with an increased rate of proteolysis for CtHtrA, particularly when these oligomers were predominately 24-mers.
# The purified recombinant protein was examined by Coomassie stained polyacrylamide gels and activity was checked using ß-casein cleavage assays prior to use in peptide assays. Briefly, this involved incubating 2 µg of the protease with 10 µg of ß-casein in 50 mM Tris pH 7.0, 20 mM MgCl2 for 2 h prior to examining the assays by SDS PAGE (ß-casein and protease only controls were always conducted). Protease assays using peptides were conducted using custom synthesised peptides (Mimotopes). […] Protease assays using pNA labelled peptides were conducted using the xMARK Microplate spectrophotometer (Bio-Rad) at 405 nm, incubated at 37°C, with a reading taken every 10 s for 30 min. The maximum slope over a minimum of 8 readings was used for the data analysis. […] The assays were excited at 340 nm and emission was detected at 405 nm with a gain of 1000, the assays were monitored every 20 s or at the minimum cycle time for up to 40 min. […] The assay results shown for the fluorescent compounds have been normalised for the amount of fluorescent emission detected using a standard curve of known concentrations of the MCA fluorophore under the identical assay conditions. […]
# CtHtrA [2] = molecular target: T1, CtHtrA; test: Activation of CtHtrA cleavage of pNA peptides by added activator peptide; format: biochemical; conditions: data not shown
# Method: as §1
# One explanation for the observation of a lack of activation for some substrates could be that these substrates act as both activators and substrates by binding to both the active and allosteric sites of CtHtrA. In particular, the pNA peptides were not activated, which could imply that the pNA moiety itself may bind at the activation site. […]
# The purified recombinant protein was examined by Coomassie stained polyacrylamide gels and activity was checked using ß-casein cleavage assays prior to use in peptide assays. […] Protease assays using pNA labelled peptides were conducted using the xMARK Microplate spectrophotometer (Bio-Rad) at 405 nm, incubated at 37°C, with a reading taken every 10 s for 30 min. The maximum slope over a minimum of 8 readings was used for the data analysis. […] The assays were excited at 340 nm and emission was detected at 405 nm with a gain of 1000, the assays were monitored every 20 s or at the minimum cycle time for up to 40 min. […]
substance,measurement,setting,value
QNIPF,effect of activator on rate of CtHtrA proteolysis of Bcas1,CtHtrA [1],did not activate CtHtrA cleavage of Bcas1
same,effect of activator peptide on CtHtrA cleavage of pNA peptides,CtHtrA [2],did activate the cleavage of some of the pNA peptides tested
